According to PubChem BioAssay (NCI):
“And” between values parts separate entries of the source, which are not always exact repeats. Equal entries are not always repeated.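 Assay format: 96-well plates, 48-hour exposure. GI50 = concentration required for 50% inhibition of growth. TGI is the concentration that stops growth completely.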

Experiments:
Assay in all cases: NCI tumour cell line growth inhibition, 48 h
RXF-631 renal = system: RXF-631 renal
M19-MEL melanoma = system: M19-MEL melanoma
XF 498 CNS = system: XF 498 CNS
DMS 114 small cell lung = system: DMS 114 small cell lung
SNB-78 CNS = system: SNB-78 CNS
HOP-18 NSCLC = system: HOP-18 NSCLC
KM20L2 colon = system: KM20L2 colon
LXFL 529 NSCLC = system: LXFL 529 NSCLC
MDA-N = system: MDA-N

| SMILES | TGI (RXF-631 renal) [µM] | TGI (M19-MEL melanoma) [µM] | TGI (XF 498 CNS) [µM] | TGI (DMS 114 small cell lung) [µM] | TGI (SNB-78 CNS) [µM] | TGI (HOP-18 NSCLC) [µM] | TGI (KM20L2 colon) [µM] | TGI (LXFL 529 NSCLC) [µM] | TGI (MDA-N) | other results |
| --- | --- | --- | --- | --- | --- | --- | --- | --- | --- | --- |
| COc1ccc2c(c1OCC(=O)O)C(=O)C(CCC(=O)O)CC2 (stereo not given) | > 100 | > 100 | > 100 | > 100 | > 100 | > 100 | > 100 | > 100 | – | – |
| Cc1cc2c(=O)c3ccccc3[nH]c2c(C(N)=O)c1C | > 100 | > 100 | > 100 | > 100 | > 100 | > 100 | > 100 | > 100 | – | – |
| CCC(C)(C)c1ccc(OCCCCNC(=O)c2ccc3ccccc3c2O)c(C(C)(C)CC)c1 | – | – | – | – | – | – | – | – | > 100 µM | – |
| O=C1CCC2(c3ccc(Cl)cc3)Nc3cc(Cl)ccc3N12 (stereo not given) | 28.9 | 25.5 | 15 | 21 | 43.4 | 14.6 | 28.9 | 24.6 | – | – |
| CCOc1ccc(/C=C2\N=C(c3ccc([N+](=O)[O-])cc3)OC2=O)cc1 | – | – | – | – | – | – | – | – | > 100 µM | – |
| CCCCCCCCCCCCCCCC(=O)OCCOCCOCCOCc1ccccc1 | – | > 100 | > 100 | – | > 100 | > 100 | – | – | – | – |
| COC1C(OC(=S)Nc2ccccc2)c2ccccc2N1C(C)=O (stereo not given) | – | > 100 | > 100 | > 100 | > 100 | > 100 | > 100 | > 100 | – | – |
| CC(C)(C)c1cc(C(P(=O)(O)O)P(=O)(O)O)cc(C(C)(C)C)c1O | – | > 100 | – | > 100 | > 100 | > 100 | > 100 | > 100 | – | – |
| CC1CC2CCCC(O)=C2C(=O)O1 (stereo not given) | – | – | – | – | – | – | – | – | > 100 µM | – |
| CCOC(=O)N[C@H]1CCc2cc(OC)c(OC)c(OC)c2-c2ccc(SC)c(=O)cc21 | – | – | 29.8 | < 0.0117 | > 100 | > 100 | < 0.01 | – | > 100 µM | – |
| CN1CCC(=O)/C(=C/c2ccccc2)C1 | 33.9 | 18.4 | 32.9 | 24 | 57.6 | 32.2 | 26.6 | 17.6 | – | – |
| COc1cc(C(=O)N2CCN(C(=O)c3cc(OC)c(OC)c(OC)c3)C2=S)cc(OC)c1OC | – | – | – | – | – | – | – | – | 33.9 µM | GI50 (MDA-N): 15 µM |
| O=C1N=C2Sc3ccc4ccccc4c3N2C1=O | 51.9 | > 100 | 41.3 | > 100 | 79.5 | 33 | 64.4 | 37.7 | – | – |
| CC12CCC(=O)C[C@H]1CCC(OC=O)C2Br (stereo not given in full) | – | > 100 | > 100 | > 100 | – | > 100 | > 100 | > 100 | – | – |
| COC(=O)/C(C#N)=C1\N=NNN1c1ccc(OC)cc1 | > 100 | > 100 | – | > 100 | > 100 | > 100 | – | > 100 | – | – |
| COc1cc(N(CCC#N)CCC#N)ccc1/C(N=Nc1ccc(Cl)cc1)=N/NC(=O)c1cc(Br)ccc1O | – | – | – | – | – | – | – | – | > 150 µg/mL | GI50 (MDA-N): 90.3 µg/mL |
| C/C(CC(=O)Nc1ccc(C)c(C)c1)=N\N(c1ccccc1)c1ccccc1 | – | – | > 100 | 33.2 | > 100 | > 100 | 26 | > 100 | – | – |
| CCN(CC)CCNc1nc(N)c(C#N)c(C#N)c1C#N | – | – | – | – | – | – | – | – | > 10 µM | – |
| COCC(OC)C(CC=C(C#N)C#N)OC (stereo not given) | – | > 100 | > 100 | > 100 | > 100 | – | > 100 | > 100 | – | – |
| CC1(C)COC(c2cccc3c2C(=O)c2cccc(Cl)c2-3)=N1 | > 100 | – | > 100 | > 100 | > 100 | – | > 100 | > 100 | – | – |
| COC(=O)/C(=C/c1ccc(OC)cc1)C(C(=O)O)=C1CCCC1 | > 100 | > 100 | > 100 | – | > 100 | – | > 100 | > 100 | – | – |
| COC(=O)C1CCCC2(C1)OCCO2 (stereo not given) | > 100 | > 100 | – | > 100 | > 100 | > 100 | > 100 | > 100 | – | – |
| CCOC(=O)c1ccc(/C(C)=N/NC(N)=S)cc1 | > 100 | > 100 | > 100 | > 100 | > 100 | > 100 | > 100 | > 100 | – | – |

| SMILES | TGI (RXF-631 renal) [µM] | TGI (M19-MEL melanoma) [µM] | TGI (XF 498 CNS) [µM] | TGI (DMS 114 small cell lung) [µM] | TGI (SNB-78 CNS) [µM] | TGI (HOP-18 NSCLC) [µM] | TGI (KM20L2 colon) [µM] | TGI (LXFL 529 NSCLC) [µM] | TGI (MDA-N) | other results |
| --- | --- | --- | --- | --- | --- | --- | --- | --- | --- | --- |
| COC(=O)/C(=N\NC(N)=S)C(C(=O)OC)C(=O)C(=O)Nc1ccc(C)cc1 (stereo not given) | > 100 | > 100 | > 100 | > 100 | > 100 | > 100 | > 100 | > 100 | – | – |
| Cc1ccc2nc(/C(=C/c3ccc(/C=C(\NC(=O)c4ccccc4)c4nc5ccc(C)cc5[nH]4)c(C)c3)NC(=O)c3ccccc3)[nH]c2c1 | 91.3 | 44.8 | 36.5 | 69.6 | 79.1 | – | 45.3 | 12.2 | – | – |
| CC(C)C1=Cc2ccc3c(c2C(=O)C1=O)CCCC3(C)C | – | 6.99 | – | – | 16.6 | 6.27 | 42.7 | 3.45 | – | – |
| CN(C)C(=S)/N=c1\sn(C)/c(=N\C(=S)N(C)C)n1C | > 100 | 69.7 | > 100 | – | > 100 | > 100 | > 100 | > 100 | – | – |
| O=C(CC1C(=O)Nc2ccccc2S1=O)Nc1cc(Cl)ccc1Cl (stereo not given) | > 100 | > 100 | > 100 | > 100 | > 100 | – | > 100 | > 100 | – | – |
| Cc1nc(N)sc1N=Nc1ccccc1Br | – | – | – | – | – | – | – | – | 64.7 µM | – |
| CCCC(=O)Nc1cn(COC)c(C(=O)N2C[C@@H]3C[C@]34C2=CC(=O)c2[nH]cc(C)c24)n1 | – | – | – | – | – | – | – | – | 19.3 µM and 31.3 µM | GI50 (MDA-N): 12.7 µM |
| C#CC1/C(=C\C(=O)OC)CCCC1O (stereo not given) | – | > 100 | > 100 | > 100 | > 100 | > 100 | > 100 | > 100 | – | – |
| CN1C(=O)c2ccccc2NC(=O)C12O[C@@H]2c1ccccc1 (stereo not given in full) | – | – | – | – | – | – | – | – | > 100 µM | – |
| C=CCC1(c2ccc(OC)cc2)C=CC(=O)CC1 (stereo not given) | – | – | – | – | – | – | – | – | > 100 µM | – |
| CCC[CH2][Sn]([CH2]CCC)([O]C(=O)c1ccc(OC)c(OC)c1OC)[O][Sn]([CH2]CCC)([CH2]CCC)[O]C(=O)c1ccc(OC)c(OC)c1OC | – | 1.05 | 0.229 | 0.171 | 0.211 | 0.473 | 2.12 | 0.0938 | 1.66 µM | GI50 (M19-MEL melanoma): 0.21 µM; GI50 (XF 498 CNS): 0.104 µM; GI50 (MDA-N): 0.357 µM; GI50 (DMS 114 small cell lung): 0.0281 µM; GI50 (SNB-78 CNS): 0.0392 µM; GI50 (HOP-18 NSCLC): 0.27 µM; GI50 (KM20L2 colon): 0.76 µM; GI50 (LXFL 529 NSCLC): 0.02 µM |
| O=C(/C(=C/c1ccc(Cl)cc1)c1ccccc1)c1ccccc1 | – | – | 34.5 | 37.2 | 68.7 | 62.3 | – | 33.7 | – | – |
| COc1c(O)c2c(=O)cc3c4c5c(cc(=O)c6c(O)c(OC)c(CC(C)O)c(c(c1CC(C)O)c24)c65)OCO3 (stereo not given) | – | 2.08 | – | – | 8.04 | 8.3 | 1.69 | 11.4 | – | – |
| Cc1c(N(C)C)ccc2c(=O)c3cccc(CC(=O)O)c3oc12 | > 100 | > 100 | – | > 100 | > 100 | > 100 | > 100 | – | > 100 µM | – |
| NS(=O)(=O)c1ccc(N=Nc2c(O)c(C(=O)O)cc3ccccc23)cc1 | – | – | – | – | – | – | – | – | > 100 µM | – |
| Cc1ccc(C)c(NC(=O)c2cccc([N+](=O)[O-])c2O)c1 | – | 82.1 | 67.3 | 47.6 | 56.9 | > 100 | > 100 | > 100 | – | – |
| O=[N+]([O-])c1ccc2occ3c2c1CCC3 | – | > 100 | – | > 100 | > 100 | – | – | > 100 | – | – |
| N#CC(C(=O)/C(=N\NC(N)=O)C(C#N)c1ccc(Cl)cc1)c1ccc(Cl)cc1 (stereo not given) | > 100 | > 100 | > 100 | > 100 | > 100 | > 100 | > 100 | > 100 | – | – |
| O=C(Nc1cccc(Cl)c1)C(=O)C(C(=O)c1ccc2ccccc2c1)C1OC(=O)c2ccccc21 (stereo not given) | 81.2 | 39.1 | – | 79.3 | 50.6 | 28.2 | > 100 | 21.9 | – | – |
| N#C/C(=C\c1ccc2ccccc2c1)C(=O)c1ccccc1 | – | > 100 | > 100 | > 100 | > 100 | > 100 | > 100 | > 100 | > 100 µM | – |
| Cc1ccccc1C(=O)c1cc(O)ccc1O | > 100 | > 100 | > 100 | > 100 | > 100 | > 100 | > 100 | > 100 | – | – |
| NC(N)=NCCCC(=O)O | – | – | – | – | – | – | – | – | > 100 µM | – |
